Measured values taken from ChEMBL document CHEMBL5223180, “Design, Synthesis, and Bioevaluation of Pyrido[2,3-d]pyrimidin-7-ones as Potent SOS1 Inhibitors” (ACS Med Chem Lett, 2023).
One block for each molecule: values may come before it.

Assays:
[1] = molecular target: T1, Son of sevenless homolog 1 (Homo sapiens, UniProt Q07889); assay: Inhibition of 6His-tagged SOS1 (unknown origin) mediated GST-tagged KRAS G12D activation preincubated for 15 mins followed by KRAS G12D addition and measured after 30 mins by HTRF assay
T1 sequence (Q07889 whole entry): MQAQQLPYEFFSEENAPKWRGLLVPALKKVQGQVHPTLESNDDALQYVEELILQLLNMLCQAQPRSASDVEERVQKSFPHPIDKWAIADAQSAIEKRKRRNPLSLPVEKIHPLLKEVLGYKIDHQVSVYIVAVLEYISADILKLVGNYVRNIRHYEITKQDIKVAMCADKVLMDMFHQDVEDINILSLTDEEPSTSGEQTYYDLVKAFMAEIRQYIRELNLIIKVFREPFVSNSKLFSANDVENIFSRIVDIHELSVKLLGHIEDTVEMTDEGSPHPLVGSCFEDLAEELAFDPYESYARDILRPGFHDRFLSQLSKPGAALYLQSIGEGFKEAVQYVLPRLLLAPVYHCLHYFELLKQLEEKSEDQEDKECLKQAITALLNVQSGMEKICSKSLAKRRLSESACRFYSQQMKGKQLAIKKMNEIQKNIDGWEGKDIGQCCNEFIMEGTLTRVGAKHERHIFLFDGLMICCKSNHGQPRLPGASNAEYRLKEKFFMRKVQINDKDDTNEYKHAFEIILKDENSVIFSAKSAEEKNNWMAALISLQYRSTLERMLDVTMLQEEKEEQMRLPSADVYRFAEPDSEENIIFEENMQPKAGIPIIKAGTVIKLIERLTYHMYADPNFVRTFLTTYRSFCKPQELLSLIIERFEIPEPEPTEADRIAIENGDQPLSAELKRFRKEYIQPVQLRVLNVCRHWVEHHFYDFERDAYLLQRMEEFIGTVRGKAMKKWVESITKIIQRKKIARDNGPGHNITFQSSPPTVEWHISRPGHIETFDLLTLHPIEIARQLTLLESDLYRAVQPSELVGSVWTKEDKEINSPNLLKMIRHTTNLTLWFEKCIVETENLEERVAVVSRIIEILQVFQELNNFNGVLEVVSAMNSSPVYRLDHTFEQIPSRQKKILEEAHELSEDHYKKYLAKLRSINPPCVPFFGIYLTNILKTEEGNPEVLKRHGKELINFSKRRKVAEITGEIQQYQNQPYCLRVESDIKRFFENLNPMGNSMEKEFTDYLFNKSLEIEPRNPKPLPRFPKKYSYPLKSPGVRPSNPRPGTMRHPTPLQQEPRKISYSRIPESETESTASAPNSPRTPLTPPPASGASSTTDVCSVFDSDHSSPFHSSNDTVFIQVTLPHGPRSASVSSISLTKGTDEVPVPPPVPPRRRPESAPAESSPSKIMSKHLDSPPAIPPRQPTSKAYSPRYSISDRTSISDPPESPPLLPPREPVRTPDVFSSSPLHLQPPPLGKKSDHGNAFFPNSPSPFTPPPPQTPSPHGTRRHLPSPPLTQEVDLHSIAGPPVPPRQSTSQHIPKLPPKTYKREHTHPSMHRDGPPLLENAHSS

[2] = molecular target: Cyclin-dependent kinase 2 (Homo sapiens, UniProt P24941); assay: Inhibition of CDK2 (unknown origin)
[3] = molecular target: Epidermal growth factor receptor (Homo sapiens, UniProt P00533); assay: Inhibition of EGFR (unknown origin)
[4] = molecular target: Cyclin-dependent kinase 4 (Homo sapiens, UniProt P11802); assay: Inhibition of CDK4 (unknown origin)
[5] = molecular target: Receptor tyrosine-protein kinase erbB-2 (Homo sapiens, UniProt P04626); assay: Inhibition of HER2 (unknown origin)
[6] = molecular target: Fibroblast growth factor receptor 1 (Homo sapiens, UniProt P11362); assay: Inhibition of FGFR1 (unknown origin)
[7] = molecular target: Platelet-derived growth factor receptor alpha (Homo sapiens, UniProt P16234); assay: Inhibition of PDGFRalpha (unknown origin)
[8] = test system: GTPase KRas (Homo sapiens), P01116 [G12D]; conditions: dose 10.0 µM
MIA PaCa-2 = assay: cells; conditions: Homo sapiens, MIA PaCa-2, 168 h

Receptor tyrosine-protein kinase erbB-2, sequence (P04626 whole entry): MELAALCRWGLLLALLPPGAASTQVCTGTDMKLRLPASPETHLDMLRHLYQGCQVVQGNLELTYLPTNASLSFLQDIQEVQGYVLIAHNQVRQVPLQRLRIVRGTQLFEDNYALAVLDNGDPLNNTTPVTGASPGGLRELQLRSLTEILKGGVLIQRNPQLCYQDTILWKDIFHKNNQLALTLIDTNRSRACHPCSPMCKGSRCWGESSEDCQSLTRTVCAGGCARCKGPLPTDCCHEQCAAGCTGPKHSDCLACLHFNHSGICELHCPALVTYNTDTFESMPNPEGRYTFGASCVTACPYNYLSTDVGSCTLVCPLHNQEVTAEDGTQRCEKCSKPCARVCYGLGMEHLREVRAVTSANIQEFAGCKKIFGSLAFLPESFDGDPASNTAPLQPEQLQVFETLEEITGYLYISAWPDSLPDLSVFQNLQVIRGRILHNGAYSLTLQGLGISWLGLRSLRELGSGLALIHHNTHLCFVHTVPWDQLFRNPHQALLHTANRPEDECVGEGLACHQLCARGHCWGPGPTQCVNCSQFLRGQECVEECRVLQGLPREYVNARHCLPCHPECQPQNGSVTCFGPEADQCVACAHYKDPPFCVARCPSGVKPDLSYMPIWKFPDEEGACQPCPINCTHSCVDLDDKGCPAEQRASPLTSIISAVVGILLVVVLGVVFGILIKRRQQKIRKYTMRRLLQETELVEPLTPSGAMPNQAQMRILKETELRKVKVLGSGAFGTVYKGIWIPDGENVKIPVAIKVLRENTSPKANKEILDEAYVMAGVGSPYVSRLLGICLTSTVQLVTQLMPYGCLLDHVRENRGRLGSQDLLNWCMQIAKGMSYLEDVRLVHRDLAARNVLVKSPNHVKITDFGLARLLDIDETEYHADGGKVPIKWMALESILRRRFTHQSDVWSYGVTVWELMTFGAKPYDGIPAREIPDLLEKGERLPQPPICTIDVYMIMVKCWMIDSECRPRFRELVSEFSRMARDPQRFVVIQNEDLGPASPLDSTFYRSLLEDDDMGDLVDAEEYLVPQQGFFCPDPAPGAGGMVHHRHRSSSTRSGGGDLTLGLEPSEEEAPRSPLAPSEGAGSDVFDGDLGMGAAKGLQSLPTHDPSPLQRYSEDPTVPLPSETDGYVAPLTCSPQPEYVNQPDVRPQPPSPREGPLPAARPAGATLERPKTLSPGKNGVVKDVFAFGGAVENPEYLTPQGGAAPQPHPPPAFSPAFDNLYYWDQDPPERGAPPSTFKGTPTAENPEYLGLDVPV
Epidermal growth factor receptor, sequence (P00533 whole entry): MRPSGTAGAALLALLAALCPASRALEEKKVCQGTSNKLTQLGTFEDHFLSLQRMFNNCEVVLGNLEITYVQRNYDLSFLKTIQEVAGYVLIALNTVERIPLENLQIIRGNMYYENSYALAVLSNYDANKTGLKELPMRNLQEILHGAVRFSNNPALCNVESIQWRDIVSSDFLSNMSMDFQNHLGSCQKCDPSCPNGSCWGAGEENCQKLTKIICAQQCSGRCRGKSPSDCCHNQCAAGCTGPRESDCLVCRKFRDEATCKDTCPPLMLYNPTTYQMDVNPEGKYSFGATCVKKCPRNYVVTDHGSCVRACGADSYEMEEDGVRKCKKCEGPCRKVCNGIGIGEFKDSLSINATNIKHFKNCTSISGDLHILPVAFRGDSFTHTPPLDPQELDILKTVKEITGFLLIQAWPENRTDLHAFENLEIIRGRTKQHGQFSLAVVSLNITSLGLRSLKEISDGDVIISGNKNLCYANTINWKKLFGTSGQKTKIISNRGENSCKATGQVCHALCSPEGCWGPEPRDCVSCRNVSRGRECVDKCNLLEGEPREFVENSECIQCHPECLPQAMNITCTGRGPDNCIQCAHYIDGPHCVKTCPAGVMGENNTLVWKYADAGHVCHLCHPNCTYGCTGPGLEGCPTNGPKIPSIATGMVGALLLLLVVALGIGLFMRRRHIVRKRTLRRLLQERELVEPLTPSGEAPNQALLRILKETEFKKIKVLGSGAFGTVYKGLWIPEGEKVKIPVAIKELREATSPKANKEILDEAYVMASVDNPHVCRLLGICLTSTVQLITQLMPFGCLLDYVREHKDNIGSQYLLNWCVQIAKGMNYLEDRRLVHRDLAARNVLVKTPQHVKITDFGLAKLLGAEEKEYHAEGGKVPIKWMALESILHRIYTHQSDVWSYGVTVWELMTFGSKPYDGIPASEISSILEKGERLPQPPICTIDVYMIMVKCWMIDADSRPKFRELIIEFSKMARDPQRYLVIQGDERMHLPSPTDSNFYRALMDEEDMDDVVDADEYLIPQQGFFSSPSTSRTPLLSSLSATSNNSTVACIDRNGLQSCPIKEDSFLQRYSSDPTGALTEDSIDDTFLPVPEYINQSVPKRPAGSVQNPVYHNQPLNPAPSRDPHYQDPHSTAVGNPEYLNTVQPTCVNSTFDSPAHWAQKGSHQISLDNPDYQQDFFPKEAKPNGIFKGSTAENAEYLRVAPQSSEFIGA
GTPase KRas (Homo sapiens), P01116 [G12D], sequence (P01116 whole entry G12D, looked up): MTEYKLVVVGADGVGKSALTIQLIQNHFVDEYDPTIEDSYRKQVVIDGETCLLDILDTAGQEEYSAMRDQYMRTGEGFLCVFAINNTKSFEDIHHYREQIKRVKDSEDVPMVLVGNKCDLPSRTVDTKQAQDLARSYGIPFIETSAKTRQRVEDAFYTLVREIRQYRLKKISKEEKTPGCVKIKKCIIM
Cyclin-dependent kinase 4, sequence (P11802 whole entry): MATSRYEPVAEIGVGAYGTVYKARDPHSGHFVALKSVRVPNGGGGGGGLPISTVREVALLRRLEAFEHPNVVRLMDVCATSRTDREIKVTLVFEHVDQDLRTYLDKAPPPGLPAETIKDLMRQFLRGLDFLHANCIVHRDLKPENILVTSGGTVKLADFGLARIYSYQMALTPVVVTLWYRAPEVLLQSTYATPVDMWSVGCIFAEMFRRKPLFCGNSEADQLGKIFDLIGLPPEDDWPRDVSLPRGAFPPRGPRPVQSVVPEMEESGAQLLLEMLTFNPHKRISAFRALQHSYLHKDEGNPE
Fibroblast growth factor receptor 1, sequence (P11362 whole entry): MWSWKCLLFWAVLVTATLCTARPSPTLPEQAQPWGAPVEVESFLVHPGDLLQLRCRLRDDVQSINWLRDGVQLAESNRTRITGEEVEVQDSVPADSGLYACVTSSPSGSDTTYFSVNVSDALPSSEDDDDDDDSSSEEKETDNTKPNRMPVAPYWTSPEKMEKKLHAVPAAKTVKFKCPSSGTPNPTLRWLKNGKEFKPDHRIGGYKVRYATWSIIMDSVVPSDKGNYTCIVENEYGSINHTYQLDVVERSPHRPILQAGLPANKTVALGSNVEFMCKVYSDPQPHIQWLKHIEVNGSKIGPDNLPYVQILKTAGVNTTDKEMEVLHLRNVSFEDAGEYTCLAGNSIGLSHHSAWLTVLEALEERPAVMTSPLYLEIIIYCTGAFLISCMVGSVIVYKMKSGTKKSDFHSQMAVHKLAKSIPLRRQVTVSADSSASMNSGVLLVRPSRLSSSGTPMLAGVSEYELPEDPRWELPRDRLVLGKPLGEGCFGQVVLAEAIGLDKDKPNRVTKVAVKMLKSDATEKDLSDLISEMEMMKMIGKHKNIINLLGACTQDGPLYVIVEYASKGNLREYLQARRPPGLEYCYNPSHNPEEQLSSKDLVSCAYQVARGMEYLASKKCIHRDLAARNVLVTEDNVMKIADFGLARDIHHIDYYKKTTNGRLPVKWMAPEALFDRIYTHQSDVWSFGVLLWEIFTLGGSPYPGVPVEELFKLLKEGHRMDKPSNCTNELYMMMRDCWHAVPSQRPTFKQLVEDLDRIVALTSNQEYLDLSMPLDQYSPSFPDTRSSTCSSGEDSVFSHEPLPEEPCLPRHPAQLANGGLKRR
Platelet-derived growth factor receptor alpha, sequence (P16234 whole entry): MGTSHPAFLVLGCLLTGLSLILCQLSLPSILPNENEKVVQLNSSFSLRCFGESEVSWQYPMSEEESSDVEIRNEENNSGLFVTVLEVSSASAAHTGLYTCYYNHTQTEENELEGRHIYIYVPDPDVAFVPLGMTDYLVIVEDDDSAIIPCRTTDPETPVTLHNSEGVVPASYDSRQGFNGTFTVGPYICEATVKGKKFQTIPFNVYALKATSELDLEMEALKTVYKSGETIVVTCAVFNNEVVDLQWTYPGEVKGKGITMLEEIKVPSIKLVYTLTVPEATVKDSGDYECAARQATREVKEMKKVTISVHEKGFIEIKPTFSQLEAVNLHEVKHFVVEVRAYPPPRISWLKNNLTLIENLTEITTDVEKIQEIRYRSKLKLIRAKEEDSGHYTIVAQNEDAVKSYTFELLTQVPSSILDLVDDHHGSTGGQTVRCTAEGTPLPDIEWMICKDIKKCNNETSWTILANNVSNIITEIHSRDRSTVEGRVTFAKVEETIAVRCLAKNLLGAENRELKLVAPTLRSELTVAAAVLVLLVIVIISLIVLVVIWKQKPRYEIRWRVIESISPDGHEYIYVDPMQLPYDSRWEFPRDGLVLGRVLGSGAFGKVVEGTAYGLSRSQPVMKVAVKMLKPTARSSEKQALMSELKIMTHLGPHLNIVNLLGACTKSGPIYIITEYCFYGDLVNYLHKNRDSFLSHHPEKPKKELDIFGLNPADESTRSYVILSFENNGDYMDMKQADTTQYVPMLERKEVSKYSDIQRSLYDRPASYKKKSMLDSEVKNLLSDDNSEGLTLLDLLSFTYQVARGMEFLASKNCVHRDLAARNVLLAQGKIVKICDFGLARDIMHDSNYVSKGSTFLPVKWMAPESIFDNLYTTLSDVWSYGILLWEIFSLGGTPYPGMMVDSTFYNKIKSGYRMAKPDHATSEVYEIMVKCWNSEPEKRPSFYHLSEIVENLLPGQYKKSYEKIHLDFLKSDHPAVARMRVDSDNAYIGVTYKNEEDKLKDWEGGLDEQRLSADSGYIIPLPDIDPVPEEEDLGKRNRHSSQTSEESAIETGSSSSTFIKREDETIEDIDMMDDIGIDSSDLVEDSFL

Structure (SMILES): CC(=O)N1CCC(c2cc3c(N[C@H](C)c4cc(N)cc(C(F)(F)F)c4)nc(C)nc3n(C)c2=O)CC1
IC50 [2]: > 10 µM | IC50 [3]: > 10 µM | IC50 [4]: > 10 µM | IC50 [5]: > 10 µM | IC50 [6]: > 10 µM | IC50 [7]: > 10 µM

Structure (SMILES): CC(=O)N1CCC(c2cc3c(Nc4cccc(C(F)(F)F)c4)ncnc3n(C)c2=O)CC1
IC50 [1]: > 5 µM

Structure (SMILES): C[C@@H](Nc1ncnc2c1ccc(=O)n2C)c1cc(N)cc(C(F)(F)F)c1
IC50 [1]: > 5 µM

Structure (SMILES): COc1cc2nc(C)nc(N[C@H](C)c3cc(N)cc(C(F)(F)F)c3)c2cc1O[C@H]1CCOC1
ΔTm [8]: 0 °C | IC50 (MIA PaCa-2): 0.03 µM

Now from value to molecule:

IC50 [1]: > 5 µM
Structure (SMILES): C[C@@H](Nc1ncnc2c1cc(NC1CCCCC1)c(=O)n2C)c1cc(N)cc(C(F)(F)F)c1

IC50 [1]: > 5 µM
Structure (SMILES): C[C@@H](Nc1ncnc2c1cc(N)c(=O)n2C)c1cc(N)cc(C(F)(F)F)c1

IC50 [1]: > 5 µM
Structure (SMILES): CC(=O)Nc1cc2c(N[C@H](C)c3cc(N)cc(C(F)(F)F)c3)ncnc2n(C)c1=O
